The assay addresses T1, human NK-2 receptor (Homo sapiens, UniProt P21452).
T1 construct: expressed in transfected cells; host or cells: CHO (Chinese hamster ovary) cells, membranes
T1 sequence (P21452 1-398): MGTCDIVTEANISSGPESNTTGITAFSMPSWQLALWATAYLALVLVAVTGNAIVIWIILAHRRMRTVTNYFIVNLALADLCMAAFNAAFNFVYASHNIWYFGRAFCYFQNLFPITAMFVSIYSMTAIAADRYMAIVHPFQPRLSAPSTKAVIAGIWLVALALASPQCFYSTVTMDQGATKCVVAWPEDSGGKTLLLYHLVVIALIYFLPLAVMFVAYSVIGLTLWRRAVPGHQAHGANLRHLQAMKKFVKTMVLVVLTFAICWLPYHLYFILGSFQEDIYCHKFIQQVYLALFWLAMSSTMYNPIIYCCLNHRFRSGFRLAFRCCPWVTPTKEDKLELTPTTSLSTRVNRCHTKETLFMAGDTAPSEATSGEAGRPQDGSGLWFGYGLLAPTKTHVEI
In words: binding test, affinity for the human NK-2 receptor, competition with [125I]NKA on transfected CHO cell membranes. On the procedure:
The evaluation of the antagonist activity on NK-2 receptors has been assessed by binding and functional tests according to that already described in literature in relation to NK-2 antagonists.
The test substances have been tested within a concentration range from 0.01 nM to 10 nM. At the end of the incubation time (30 min, 20° C.) the samples have been filtered and radioactivity has been determined using a gamma-counter.

The mark [1] stands for this setting: CHO cell membranes transfected with NK-2 receptor of human ileum, [125I]NKA 100 pM, 30 min, 20° C.

As usually defined, the Ki is the dissociation constant of the complex between target and ligand, obtained from inhibition or displacement. High values mean lower affinity, low ones higher affinity. As a reminder, the pKi is the Ki on a negative log10 scale, so that one unit is a factor of ten. A lower pKi goes with a high Ki.

The structures appear in SMILES notation. Where a name gives a salt, the structure may show the parent alone. Read-outs that look alike come from different tables or passages of the source.

For `O=C(NC1(C(=O)N[C@H](Cc2ccccc2)C(=O)NCC2CCN(CC3CCOCC3)CC2)CCCC1)c1cc2cccc(I)c2s1` [Example 132, 7-Iodo-benzo[b]thiophene-2-carboxylic acid [1-(2-phenyl-1R-{[1-(tetrahydro-pyran 4-ylmethyl)-piperidin-4-ylmethyl]-carbamoyl}-ethylcarbamoyl)-cyclopentyl]-amide], the Ki under setting [1] is 0.0316 nM.
Same read-out and setting: for `O=C(NC1(C(=O)N[C@H](Cc2ccccc2)C(=O)NCC2CCN(CC3CCOCC3)CC2)CCCC1)c1cc2cccc(C(F)(F)F)c2s1` [Example 136, 7-Trifluoromethyl-benzo[b]thiophene-2-carboxylic acid [1-(2-phenyl-1R-{[1-(tetrahydro-pyran-4-ylmethyl)piperidin-4-ylmethyl]-carbamoyl}-ethylcarbamoyl)-cyclopentyl]-amide] the value was 0.0631 nM.
Regarding `N[C@H]1CCCC[C@@H]1NC(=O)[C@@H]1CC[C@H](NC(=O)[C@@H](Cc2ccccc2)NC(=O)C2(NC(=O)c3cc4ccccc4o3)CCCC2)C1.O=C(O)C(F)(F)F` [Example 6], the pKi came to 9.7.
The molecule `O=C(NC1(C(=O)N[C@H](Cc2ccccc2)C(=O)NCCCN2CCOCC2)CCCC1)c1cc2ccc(Cl)c(Cl)c2s1` [Example 116, 6,7-Dichloro-benzo[b]thiophene-2-carboxylic acid {1-[1R-(3-morpholin-4-yl-propylcarbamoyl)-2-phenyl-ethylcarbamoyl]-cyclopentyl}-amide] showed a Ki under setting [1] of 0.316 nM.
In turn, `Cc1ccc2cc(C(=O)NC3(C(=O)N[C@H](Cc4ccccc4)C(=O)NCC4CCN(CC5CCOCC5)CC4)CCCC3)oc2c1` [Example 125, 6-Methyl-benzofuran-2-carboxylic acid [1-(2-phenyl-1R-{[1-(tetrahydro-pyran-4-ylmethyl)-piperidin-4-ylmethyl]-carbamoyl}-ethylcarbamoyl)-cyclopentyl]-amide] showed a Ki under setting [1] of 0.251 nM.
For the molecule `O=C(NC1(C(=O)N[C@H](Cc2ccccc2)C(=O)NCC2CCN(CC3CCOCC3)CC2)CCCC1)c1cc2cccc(Cl)c2s1` [Example 137, 7-Chloro-benzo[b]thiophene-2-carboxylic acid [1-(2-phenyl-1R-{[1-(tetrahydro-pyran-4-ylmethyl)-piperidin-4-ylmethyl]-carbamoyl}-ethylcarbamoyl)-cyclopentyl]-amide], under setting [1], the Ki was 0.0794 nM.
Turning to `CCN1CCC(CNC(=O)[C@@H](Cc2ccccc2)NC(=O)C2(NC(=O)c3ccc4cc(Br)ccc4c3)CCCC2)CC1` [Example 76, 6-Bromo-naphthalene-2-carboxylic acid (1-{1(R)-[(1-ethyl-piperidin-4-ylmethyl)-carbamoyl]-2-phenyl-ethylcarbamoyl}-cyclopentyl)-amide], under setting [1], affinity was put at a Ki of 1 nM.
The molecule `O=C(NC1(C(=O)N[C@H](Cc2ccccc2)C(=O)NCC2CCN(CC3CCOCC3)CC2)CCCC1)c1ccc2cc(Br)ccc2c1` [Example 72, 6-Bromo-naphthalene-2-carboxylic acid [1-(2-phenyl-1(R)-{[-(tetrahydro-pyran-4-ylmethyl)-piperidin-4-ylmethyl]-carbamoyl}-ethylcarbamoyl)-cyclopentyl]-amide] gave a negative logarithm of the Ki (pKi) under setting [1] of 10.0.
`O=C(NC1(C(=O)N[C@@H](CNCCC2CCN(C(=O)Cc3cccs3)CC2)Cc2ccccc2)CCCC1)c1cc2ccccc2s1` [Example 94, Benzo[b]thiophene-2-carboxylic acid [1-(1(R)benzyl-2-{2-[1-(thiophen-2-yl-acetyl)-piperidin-4-yl]-ethylamino}-ethylcarbamoyl)-cyclopentyl]-amide TFA salt] showed a Ki under setting [1] of 0.631 nM.
As for `O=C(NC1(C(=O)N[C@H](Cc2ccccc2)C(=O)NC2CCN(CCC3CCOCC3)CC2)CCCC1)c1cc2ccccc2s1` [Example 68, Benzo[b]thiophene-2-carboxylic acid [1-(2-phenyl-1(R)-{1-[2-(tetrahydro-pyran-4-yl)-ethyl]-piperidin-4-ylcarbamoyl}-ethylcarbamoyl)-cyclopentyl]-amide TFA salt], under setting [1], the Ki was 1.26 nM.
Same read-out and setting: for `O=C(N[C@]1(C(=O)N[C@H](Cc2ccccc2)C(=O)NCCCN2CCOCC2)CCc2ccccc21)c1cc2ccccc2s1` [Example 23, N^α[N^α(benzo[b]thiophen-2-ylcarbonyl)-1-(R)-amino-indan-1-carboxy]-D-phenylalanine-N-[3(morpholin-4-yl)propyl]amide] the value was 2 nM; for `O=C(NC1(C(=O)N[C@H](Cc2ccccc2)C(=O)NCC2CCN(CC3CCOCC3)CC2)CCCC1)c1cc2ccc(Br)cc2o1` [Example 119, 6-Bromo-benzofuran-2-carboxylic acid [1-(2-phenyl-1R-{[1-(tetrahydro-pyran-4-ylmethyl)-piperidin-4-ylmethyl]-carbamoyl}-ethylcarbamoyl)cyclopentyl]-amide], 0.251 nM; for `O=C(C=Cc1ccc(Br)c(Br)c1)NC1(C(=O)N[C@H](Cc2ccccc2)C(=O)NCCCN2CCOCC2)CCCC1` [Example 50, 1-[3-(3,4-dibromophenyl)-acryloylamino]-cyclopentanecarboxylic acid [1-(3-morpholin-4-yl-propylcarbamoyl)-2-(R)-phenyl-ethyl]-amide], 0.398 nM.
On the same count and under the same terms, for `O=C(NC1(C(=O)N[C@H](Cc2ccccc2)C(=O)NCC2CCN(CC3CCOCC3)CC2)CCCC1)c1ccc2cc(I)ccc2c1` [Example 117, 6-Iodo-naphthalene-2-carboxylic acid (1-(2-phenyl-1R-{[1-(tetrahydro-pyran-4-ylmethyl)-piperidin-4-ylmethyl]-carbamoyl}-ethylcarbamoyl)-cyclopentyl]-amide] the value was 0.0501 nM; for `COC1CCN(CCCNC(=O)[C@@H](Cc2ccccc2)NC(=O)C2(NC(=O)c3cc4ccccc4s3)CCCC2)CC1` [Example 53, Benzo[b]thiophene-2-carboxylic acid (1-{1(R)-[3-(4-methoxy-piperidin-1-yl)-propylcarbamoyl]-2-phenyl-ethylcarbamoyl}-cyclopentyl)-amide TFA salt], 2.51 nM.
`NC1(C(=O)N2CCC(CNC(=O)[C@@H](Cc3ccccc3)NC(=O)C3(NC(=O)c4ccc5cc(Br)ccc5c4)CCCC3)CC2)CCCCC1` [Example 97, 6-Bromo-naphthalene-2-carboxylic acid [1-(1(R)-{[1-(1-amino-cyclohexanecarbonyl)-piperidin-4-ylmethyl]-carbamoyl}-2-phenyl-ethylcarbamoyl)-cyclopentyl]-amide] had a Ki under setting [1] of 0.02 nM.
The same measure, in the same setting: then `NC1CCCCC1NC(=O)C1CCCC(NC(=O)C(Cc2ccccc2)NC(=O)C2(NC(=O)c3cc4ccccc4s3)CCCCC2)C1` (single isomer, unassigned) [Example 28], with 0.0501 nM.
Same read-out and setting: for `NC1(C(=O)NCCNC(=O)[C@@H](Cc2ccccc2)NC(=O)C2(NC(=O)c3cc4ccccc4s3)CCCC2)CCCCC1` [Example 95] the value was 1.58 nM; for `O=C(NC1(C(=O)N[C@H](Cc2ccccc2)C(=O)NCC2CCN(CC3COCOC3)CC2)CCCC1)c1cc2ccccc2s1` [Example 88, Benzo[b]thiophene-2-carboxylic acid (1-{1(R)-[(1-[1,3]dioxan-5-ylmethyl-piperidin-4-ylmethyl)carbamoyl]-2-phenyl-ethylcarbamoyl}-cyclopentyl)-amide TFA salt], 0.794 nM.
On the same count and under the same terms, for `NC1(C(=O)N2CCC(CNC(=O)[C@@H](Cc3ccccc3)NC(=O)C3(NC(=O)c4cc5ccccc5s4)CCCC3)CC2)CCCC1` [Example 63, Benzo[b]thiophene-2-carboxylic acid [1-(1(R)-{[1-(1-amino-cyclopentanecarbonyl)piperidin-4-ylmethyl]-carbamoyl}-2-phenyl-ethylcarbamoyl)-cyclopentyl]-amide] the value was 0.631 nM; for `O=C(NC1(C(=O)N[C@H](Cc2ccccc2)C(=O)NCC2CCN(C3CCSCC3)CC2)CCCC1)c1cc2cc(Cl)ccc2o1` [Example 93, 5-Chloro-benzofuran-2-carboxylic acid [1-(2-phenyl-1(R)-{[1-(tetrahydro-thiopyran-4-yl)-piperidin-4-ylmethyl]-carbamoyl}-ethylcarbamoyl)cyclopentyl]-amide], 0.0794 nM; for `N#CCN1CCN(C(=O)CCNC(=O)[C@@H](Cc2ccccc2)NC(=O)C2(NC(=O)c3cc4ccccc4s3)CCCC2)CC1` [Example 65, Benzo[b]thiophene-2-carboxylic acid (1-{1(R)-[3-(4-cyanomethyl-piperazin-1-yl)-3-oxo-propylcarbamoyl]-2-phenyl-ethylcarbamoyl}-cyclopentyl)-amide], 1 nM.
With `CCCCN(CCCC)CCCNC(=O)[C@@H](Cc1ccccc1)NC(=O)C1(NC(=O)c2cc3ccccc3s2)CCCCC1` [Example 19, N^α[N^α(benzo[b]thiophen-2-yl-carbonyl)-1-aminocyclohexan-1-carboxy]-D-phenylalanine-N-{3-[bis(n-butyl)amino]propyl}amide], the pKi under setting [1] turned out to be 8.9.
Regarding `CN1CCCN(CCCNC(=O)[C@@H](Cc2ccccc2)NC(=O)C2(NC(=O)c3cc4ccccc4s3)CCCC2)CC1` [Example 52, Benzo[b]thiophen-2-carboxylic acid, (1-{1(R)-[3-(4-methyl-[1,4]diazepan-1-yl)-propylcarbamoyl]-2-phenylethylcarbamoyl}-cyclopentyl)-amide TFA salt], the affinity under setting [1], expressed as Ki, was 2 nM.
